These results are taken from ChEMBL document CHEMBL1201862, “PubChem BioAssay data set” (2004).

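Step 1: Grow cells in 96-well plates. Step 2: Expose to compound for 48 hours at 5 concentrations. Step 3: Interpolate endpoints linearly; if unreached, use highest concentration. At the GI50, growth is halved.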 The source made the active and inactive calls. Rule as the data show it: active = GI50 up to about 1.1 µM and inactive = higher.

Among the test systems are DLD-1; XF498; M19-MEL; DMS-273; LXFL 529; DMS-114; RXF 631; BT-549; Hs-578T.
Assay in all cases: growth of human tumour cells (NCI), 48 h

For `N#CC(/C(CCCC(=O)Nc1cccc([N+](=O)[O-])c1)=N\NC(=O)c1c(O)ccc2ccccc12)c1nc2ccccc2s1` (configuration not stated), the GI50 was 45.5 µM (inactive) in the test with DLD-1; 21.8 µM (inactive) in the test with XF498; 16.4 µM (inactive) in the test on M19-MEL; 8.63 µM (inactive) in the test with DMS-273; 30.8 µM (inactive) with LXFL 529; 12.6 µM (inactive) in the test with DMS-114.

Regarding `CC1OC(n2ccc3ccc([N+](=O)[O-])cc32)C(O)C(O)C1O` (configuration not stated), the GI50 with DLD-1, in the test with XF498, in the test on M19-MEL, in the test with DMS-273, with LXFL 529 and with DMS-114 was > 100 µM (inactive) each time.

On to `CC(C)(C)c1cc(O)c2c(c1O)C(=O)CCC2`, for which the GI50 in the test on DLD-1 was 37.9 µM (inactive); in the test on XF498, 31.1 µM (inactive); in the test with M19-MEL it was 30.5 µM (inactive); with DMS-273 it was 34.8 µM (inactive); in the test with LXFL 529 it was 34.8 µM (inactive); in the test on RXF 631, 57.7 µM (inactive). In addition, in the test with DMS-114, the GI50 is 20.3 µM (inactive).

Take `[O-]/[N+](=C\c1ccccc1)[C@H](COCc1ccccc1)c1ccccc1`: the GI50 in the test with DLD-1 is > 100 µM (inactive); in the test with XF498, 27.8 µM (inactive); with M19-MEL it was > 100 µM (inactive); with DMS-273, 93.8 µM (inactive); in the test on LXFL 529 it was > 100 µM (inactive); with RXF 631, > 100 µM (inactive). Moreover, the GI50 with DMS-114 is 54.1 µM (inactive).

On to `COc1cc(C(C)c2cc3c(cc2OCCNC(=O)COc2cc4c(cc2C(C)c2cc(OC)c(OC)c(OC)c2)OCO4)OCO3)cc(OC)c1OC` (configuration not stated), for which the GI50 in the test with DLD-1 is > 100 µM (inactive); in the test on M19-MEL it was 80.2 µM (inactive); with DMS-273 it was 75.9 µM (inactive); with LXFL 529 it was 44.2 µM (inactive); in the test on RXF 631 it was 86.3 µM (inactive); in the test with DMS-114, 26.9 µM (inactive).

In the case of `CCC(=O)OC[n+]1ccc2c(C)c3[nH]c4ccc(OC)cc4c3c(C)c2c1`, the GI50 in the test with DLD-1 was 0.0435 µM (active); in the test on XF498, 1.22 µM (inactive); with M19-MEL, 0.266 µM (active); with LXFL 529, 0.0582 µM (active); in the test on RXF 631 it was 0.0843 µM (active); with DMS-114 it was 0.104 µM (active).

For `O=C(NN1C(=O)CS(=O)(=O)C1c1cccc(F)c1)c1ccncc1` (configuration not stated), the GI50 in the test on DLD-1 was > 100 µM (inactive); in the test on XF498, 82.6 µM (inactive); with DMS-273, > 100 µM (inactive); in the test on LXFL 529, > 100 µM (inactive); with RXF 631, > 100 µM (inactive); in the test on DMS-114, > 100 µM (inactive).

Take `O=C(Nc1ccccc1)c1ccc(Cl)c([N+](=O)[O-])c1`: the GI50 in the test with DLD-1 was 23.4 µM (inactive); in the test with XF498 it was 18 µM (inactive); in the test on M19-MEL, 12.5 µM (inactive); in the test on DMS-273 it was 3.45 µM (inactive); in the test with LXFL 529 it was 3.78 µM (inactive); in the test on DMS-114, 16.6 µM (inactive).

`Nc1ccc(C(=O)N/C(=C\c2ccc3c(c2)OCO3)c2nc3ccc4c(c3[nH]2)C(=O)c2ccccc2C4=O)cc1`: the GI50 with DLD-1 is 9.82 µM (inactive); in the test with XF498, 93.8 µM (inactive); with M19-MEL it was 38.2 µM (inactive); in the test on DMS-273, 23.6 µM (inactive); with LXFL 529 it was 30.5 µM (inactive); in the test on RXF 631, 37.3 µM (inactive). Moreover, in the test on DMS-114, the GI50 was 28.2 µM (inactive).

As to `CC(NC(=O)C(=O)N/N=C1\C[C@@H](c2ccccc2)Nc2ccccc21)c1ccccc1` (some centres not stated), the GI50 in the test with DLD-1 is > 100 µM (inactive); in the test with XF498 it was 18.3 µM (inactive); in the test on M19-MEL it was > 100 µM (inactive); in the test with DMS-273 it was 7.55 µM (inactive); in the test on LXFL 529, 77.4 µM (inactive); with DMS-114, 97.1 µM (inactive).

As to `CCCCCCCCCCCCCCCCCCN(C)CC(COC)OP(=O)([O-])OCC[N+](C)(C)C` (configuration not stated), the GI50 is 1.47 µM (inactive) in the test with DLD-1; 4.93 µM (inactive) in the test with XF498; 2.75 µM (inactive) with M19-MEL; 0.625 µM (active) in the test on DMS-273; 2.53 µM (inactive) in the test on BT-549; 2.21 µM (inactive) in the test with LXFL 529. The figures for the GI50 in the test with RXF 631, in the test on DMS-114 and in the test with Hs-578T were 5.25 µM (inactive), 2.84 µM (inactive) and 4.93 µM (inactive), respectively.

Take `Cc1ccc(Nc2nc(C)c(C(/C=C/c3ccc4c(c3)OCO4)=N/Nc3ccc([N+](=O)[O-])cc3[N+](=O)[O-])s2)c([N+](=O)[O-])c1`: the GI50 was 27.6 µM (inactive) in the test with DLD-1; 22.1 µM (inactive) with XF498; 59.7 µM (inactive) in the test with M19-MEL; 25.9 µM (inactive) with DMS-273; 6.03 µM (inactive) in the test with LXFL 529; 42.5 µM (inactive) in the test with RXF 631. For the same molecule, in the test on DMS-114, the GI50 is 13.3 µM (inactive).

As to `COc1ccc(C(=O)OC2C=COC(C)C2OC(=O)c2ccc(OC)cc2)cc1` (configuration not stated), the GI50 in the test with DLD-1 is 16.4 µM (inactive); in the test on XF498 it was > 45 µM (inactive); with M19-MEL, 30.7 µM (inactive); in the test on DMS-273, 23.3 µM (inactive); with LXFL 529, 14.5 µM (inactive); with RXF 631, 26.4 µM (inactive). Moreover, the GI50 in the test on DMS-114 is 17.5 µM (inactive).

For `CCc1cccc(CC)c1NC(=S)NC(=O)c1ccc(Br)cc1`, the GI50 in the test with DLD-1 was 34.9 µM (inactive); in the test with XF498 it was 26.3 µM (inactive); in the test with M19-MEL, 35.2 µM (inactive); in the test on DMS-273 it was 49 µM (inactive); with LXFL 529, 43.1 µM (inactive); in the test on RXF 631, > 100 µM (inactive). In addition, the results for the GI50 in the test on DMS-114 and with Hs-578T were 28.2 µM (inactive) and 3.76 µM (inactive), respectively.

`N#CC(C#N)=C(N)/C(C#N)=C/c1ccc(O)c(O)c1`: the GI50 in the test with DLD-1 is 71.3 µM (inactive); in the test on XF498, > 100 µM (inactive); in the test with M19-MEL it was > 100 µM (inactive); in the test on DMS-273, 59.2 µM (inactive); in the test on BT-549, > 100 µM (inactive); in the test on LXFL 529, 40.7 µM (inactive). The figures for the GI50 with DMS-114 and in the test on Hs-578T were 25.1 µM (inactive) and 48.4 µM (inactive), respectively.

As to `CN(C)CCNC(=O)c1cccc2nc3c(Cl)cccc3nc12`, the GI50 in the test with DLD-1 was 4.43 µM (inactive); in the test with XF498 it was 2.92 µM (inactive); with M19-MEL it was 2.96 µM (inactive); in the test on DMS-273, 5.09 µM (inactive); with LXFL 529, 9.84 µM (inactive); in the test with RXF 631 it was 6.92 µM (inactive). In addition, the GI50 in the test on DMS-114 is 3.57 µM (inactive).

Take `COc1cc2c(cc1O)C(C)Cc1cc3c(cc1N(C)CC2)OCO3` (configuration not stated): the GI50 in the test on DLD-1 is 4.16 µM (inactive); with XF498 it was 7.19 µM (inactive); in the test on M19-MEL, 5.81 µM (inactive); in the test with DMS-273, 2.87 µM (inactive); in the test with LXFL 529 it was 5.41 µM (inactive); with RXF 631 it was 18.7 µM (inactive). Also, the GI50 in the test with DMS-114 is 3.54 µM (inactive).

For the molecule `CC(=O)N(C)c1ccc2c(ccc[n+]2[O-])c1[N+](=O)[O-]`, the GI50 in the test with DLD-1, in the test on XF498, with M19-MEL, in the test with DMS-273, in the test with LXFL 529 and in the test on RXF 631 was > 100 µM (inactive) each time. For the same molecule, the GI50 in the test on DMS-114 is > 100 µM (inactive).

Regarding `COc1c(C=O)c2c(c(OC)c1OC)-c1ccc(OC)c(=O)cc1[C@@H](NC(C)=O)CC2`, the GI50 was 0.0614 µM (active) in the test with DLD-1; 0.0773 µM (active) with XF498; 0.0764 µM (active) in the test with M19-MEL; 0.029 µM (active) in the test with DMS-273; 21.1 µM (inactive) in the test on BT-549; 0.0191 µM (active) in the test on LXFL 529. For the same molecule, the values for the GI50 in the test with RXF 631, in the test with DMS-114 and in the test with Hs-578T were 0.229 µM (active), < 0.0146 µM (active) and < 0.01 µM (active), respectively.

For `COC(=O)[C@@]1(O)CC(C)C=C1C=O` (some centres not stated), the GI50 with DLD-1 is 43 µM (inactive); in the test on XF498 it was > 100 µM (inactive); with M19-MEL, 80.7 µM (inactive); in the test on DMS-273, 19.2 µM (inactive); in the test with LXFL 529, 68.7 µM (inactive); with DMS-114, 30.2 µM (inactive).

For the molecule `COc1ccc(/C=C/C(=O)C(C)(C)CN2CCCCC2)cc1`, the GI50 is 18 µM (inactive) in the test on DLD-1; 16.5 µM (inactive) with XF498; 16.4 µM (inactive) in the test on M19-MEL; 18.2 µM (inactive) with DMS-273; 15.5 µM (inactive) in the test with LXFL 529; 15 µM (inactive) with DMS-114.

In the case of `CNS(=O)(=O)NNS(=O)(=O)c1ccc(F)cc1`, the GI50 in the test with DLD-1, in the test on XF498, in the test on M19-MEL, in the test with DMS-273, in the test with LXFL 529 and in the test on RXF 631 was > 100 µM (inactive) in each case. For the same molecule, in the test on DMS-114, the GI50 was > 100 µM (inactive).

Consider `O=C(/C=C\c1cccc2ccccc12)c1ccc(Cl)cc1Cl`, for which the GI50 is 22 µM (inactive) in the test on DLD-1; 19.1 µM (inactive) in the test on M19-MEL; 18.8 µM (inactive) in the test on DMS-273; 18.3 µM (inactive) with LXFL 529; 23.8 µM (inactive) in the test with RXF 631; 14.8 µM (inactive) with DMS-114.

In the case of `Nc1nc(N)c(-c2ccccc2)c(C(=O)Nc2nccs2)n1`, the GI50 in the test on DLD-1, in the test on M19-MEL, with LXFL 529, in the test on RXF 631 and in the test on DMS-114 was > 100 µM (inactive) each time.
